Test results from paper PMC7602804 (Nutrients, 2020).
“Also recorded” adds a separate entry of the source. No end group written: not given here.

What was measured:
[1] = tested on: Caco-2 monolayer; assay: Passive permeability (Papp) of mannitol across Caco-2 monolayers, membrane integrity; type: in vitro ADME, human; details: D-[1-14C]-Mannitol 3.5 µM, 56.8 mCi/mmol, apical, with or without milk peptides; A-B; 2.5 h; HBSS + 10 mM HEPES; liquid scintillation counting; mean ± standard deviation of four or five inserts
Description: (§1) The Caco-2 cells used for transport studies were seeded in polyethylene terephthalate culture inserts, with a pore size of 0.4 μm and a growth area of 0.33 cm^2 at a density of approximately 25,000 cells/insert. The Caco-2 cells were grown for three weeks on the porous membrane before they were used for transepithelial transport. The integrity of the monolayers was confirmed by measuring the TEER using a Millicell ERS-2 volt ohmmeter. Only Caco-2 monolayers with TEER values above 400 Ω cm^2 were used for the transport analysis.
(§2) Following the TEER value measurement, the Caco-2 and PBEC monolayers were gently washed twice with phosphate-buffered saline, and the transport medium (Hanks’ Balanced Salt solution supplemented with 10 mM of HEPES) was added to the apical and basolateral compartments. […] Basolateral samples were mixed with Ultima Gold liquid scintillation fluid (Perkin Elmer) and counted in a Tri-Carb 2810 TR scintillation counter (Perkin Elmer). The apparent permeability coefficient (Papp, cm/s) was determined as Papp = (dQ/dt)/(AC0) where dQ/dt is the steady state flux (cpm/s), A is the surface area of the cell culture insert membrane and C0 is the initial concentration in the apical compartment (cpm/mL). […]

[2] = tested on: PBEC monolayer (BBB model); assay: Passive permeability (Papp) of mannitol across PBEC monolayers, membrane integrity; type: in vitro ADME, porcine; details: D-[1-14C]-Mannitol 3.5 µM, 56.8 mCi/mmol, apical, with or without milk peptides; A-B; 2.5 h; HBSS + 10 mM HEPES; liquid scintillation counting; mean ± standard deviation of four or five inserts
Description: PBECs were grown until 70–80% confluency as described above and then passaged onto polyester culture inserts with a pore size of 0.4 μm and a growth area of 1.12 cm^2 (Costar, Corning, NY, USA) at a density of 1.1 × 10^5 cells/cm^2 in the PBEC growth medium. In the basolateral chamber, the medium consisted of 1 mL of PBEC growth medium and 0.5 mL of astrocyte conditioned medium. The medium was supplemented with differentiation factors: 550 nM of hydrocortisone, 250 μM of 8-(4-chlorophenylthio)adenosine-3′,5′-cyclic monophosphate (cAMP) and 17.5 μM of RO-201724 two days after seeding. The next day, the integrity of the PBEC monolayer was confirmed by measuring the TEER. […]
as §2

[3] = tested on: Caco-2 monolayers; assay: Apical to basolateral transport of milk peptides across Caco-2 monolayers (LC-MS/MS of basolateral medium); type: in vitro ADME, human; details: Caco-2, 3 weeks on PET inserts 0.4 μm, TEER above 400 Ω cm^2; A-B; mix of 192 purified milk peptides 0.1 mg/mL apical; HBSS + 10 mM HEPES; 2.5 h; LC-MS/MS of basolateral medium; identified in two out of three experiments
Description: The human colorectal adenocarcinoma cell line, Caco-2, was obtained from DSMZ (Braunschweig, Germany). The cells were grown to 50–60% confluence in Dulbecco’s Modified Eagle Medium (DMEM) Glutamax cell culture medium, supplemented with 10% heat-inactivated fetal bovine serum, 100 units/mL of penicillin and 100 μg/mL of streptomycin (all from Invitrogen, Carlsbad, CA, USA) in a humidified 5% CO2/95% air atmosphere at 37 °C. The cells used in the experiments were between passages 30 and 40.
as §1
(§3) Following the TEER value measurement, the Caco-2 and PBEC monolayers were gently washed twice with phosphate-buffered saline, and the transport medium (Hanks’ Balanced Salt solution supplemented with 10 mM of HEPES) was added to the apical and basolateral compartments. The inserts were incubated for 15 min or 2.5 h with the purified milk peptides (0.1 mg/mL) or the synthetic PIGSENSEKTTMPLW peptide (2 µg/mL), after which medium from the apical and basolateral compartments were collected for liquid chromatography tandem mass spectrometry (LC-MS/MS) analysis. Inserts incubated with a medium without peptides served as the control in the transport experiments. Membrane integrity was validated by addition of D-[1-^14C]-Mannitol (3.5 µM, 56.8 mCi/mmol) (Perkin Elmer, Waltham, MA, USA) to the upper chamber of the culture inserts with or without milk peptides for 2.5 h. The passive permeability experiments were performed on four or five individual culture inserts. Basolateral samples were mixed with Ultima Gold liquid scintillation fluid (Perkin Elmer) and counted in a Tri-Carb 2810 TR scintillation counter (Perkin Elmer). The apparent permeability coefficient (Papp, cm/s) was determined as Papp = (dQ/dt)/(AC0) where dQ/dt is the steady state flux (cpm/s), A is the surface area of the cell culture insert membrane and C0 is the initial concentration in the apical compartment (cpm/mL).
LC-MS/MS analysis was performed on a TripleTOF 6600 mass spectrometer equipped with an Exigent nanoLC 415 system (AB Sciex, Les Ulis, France). All samples were micro-purified using 3 M Empore C18 discs packed in pipette tips. The lyophilized samples were dissolved in 0.1% formic acid, injected on a trap column (2 cm × 100 µm inner diameter) and separated on an analytical column packed in-house in a pulled emitter (15 cm × 75 µm inner diameter). All columns were packed with ReproSil-Pur C18-AQ 3 µm resin (courtesy of Dr. Marisch, Ammerbuch-Entringen, Germany). Peptides were eluted directly into the mass spectrometer with a linear gradient from 5 to 35% solvent B (0.1% formic acid in acetonitrile) for 20 min with a flowrate of 250 nL/min, followed after 10 min with 100% solvent B. Data files were converted to Mascot Generic Format using the Raw Converter (version 1.1.0.18) (http://fields.scripps.edu/rawconv/) or the AB Sciex MS Data Converter beta 1.1 (AB Sciex, Les Ulis, France). The generated peak lists were searched against the Bos taurus proteome (UniProt database, https://www.uniprot.org)) using an in-house Mascot search engine (Matrix Science, London, UK). The searches were made without specifying a protease and with oxidation (Met) and phosphorylation (ST) as variable modifications. Peptide tolerance was set to 10 ppm and MS/MS tolerance was set to 0.2 Da. […]

[4] = tested on: porcine brain endothelial cell (PBEC) monolayers; assay: Apical to basolateral transport of milk peptides across porcine brain endothelial cell (PBEC) monolayers, blood-brain barrier model; type: in vitro ADME; details: primary PBEC on polyester inserts 0.4 μm, astrocyte conditioned medium, TEER higher than 800 Ω cm^2; A-B; mix of 192 milk peptides 0.1 mg/mL apical; HBSS + 10 mM HEPES; 2.5 h; LC-MS/MS; five independent studies; αS1 peptide 'or' its truncated peptides stated collectively
Description: Capillaries were isolated from the brain cortices of domestic pigs 5–6 months old as previously described. PBECs were cultured by plating the capillaries in T75 flasks coated with collagen IV (500 µg/mL) and fibronectin (100 µg/mL) in DMEM-F12 medium, supplemented with 10% plasma-derived serum (First Link, Wolverhampton, UK), heparin (15 U), 100 units/mL of penicillin and 100 µg/mL of streptomycin (PBEC growth medium), and cultured in an incubator with humidified 5% CO2/95% air at 37 °C. Puromycin (4 µg/mL) was added to the growth medium for the first three days to obtain a pure culture of PBECs.
Astrocyte conditioned medium was collected every third day from primary rat astrocytes, sterile filtered and frozen until use. Isolation of primary rat astrocytes and preparation of astrocyte conditioned media were carried out as described in [20].
PBECs were grown until 70–80% confluency as described above and then passaged onto polyester culture inserts with a pore size of 0.4 μm and a growth area of 1.12 cm^2 (Costar, Corning, NY, USA) at a density of 1.1 × 10^5 cells/cm^2 in the PBEC growth medium. In the basolateral chamber, the medium consisted of 1 mL of PBEC growth medium and 0.5 mL of astrocyte conditioned medium. The medium was supplemented with differentiation factors: 550 nM of hydrocortisone, 250 μM of 8-(4-chlorophenylthio)adenosine-3′,5′-cyclic monophosphate (cAMP) and 17.5 μM of RO-201724 two days after seeding. The next day, the integrity of the PBEC monolayer was confirmed by measuring the TEER. Only PBEC monolayers with TEER values higher than 800 Ω cm^2 were used for the transport analysis.
as §3
LC-MS/MS analysis was performed on a TripleTOF 6600 mass spectrometer equipped with an Exigent nanoLC 415 system (AB Sciex, Les Ulis, France). All samples were micro-purified using 3 M Empore C18 discs packed in pipette tips. The lyophilized samples were dissolved in 0.1% formic acid, injected on a trap column (2 cm × 100 µm inner diameter) and separated on an analytical column packed in-house in a pulled emitter (15 cm × 75 µm inner diameter). All columns were packed with ReproSil-Pur C18-AQ 3 µm resin (courtesy of Dr. Marisch, Ammerbuch-Entringen, Germany). […]

[5] = tested on: Caco-2 monolayers; set-up: method as in PMID 20397193, PMID 23561097; details: Caco-2 monolayer; cited from earlier work
[6] = tested on: angiotensin-converting enzyme (ACE); details: potential anti-hypertensive peptides; cited from earlier work
Source text: The ACE-inhibitory ability is presumably mediated through the derived fragments TTMPLW and KTTMP [36, 37]. Thus, the transport of this peptide across physiological barriers could influence the regulation of arterial blood pressure. Furthermore, ACE is present in the brain and plays a key role in high salt induced sympatho-excitation, hypertension, neuroprotection, cognition and cerebr ...

[7] = Caco-2 monolayers in culture inserts; transport medium (Hanks' Balanced Salt solution supplemented with 10 mM of HEPES); basolateral medium analysed; details: human, up to 2.5 h
[8] = primary porcine brain endothelial cell (PBEC) monolayers in culture inserts; transport medium (Hanks' Balanced Salt solution supplemented with 10 mM of HEPES); basolateral medium analysed; details: up to 2.5 h
[9] = tested on: pepsin from porcine gastric mucosa, then trypsin and chymotrypsin from a bovine pancreas and elastase; assay: purified milk peptide mix: pepsin in 0.15 M NaCl pH 2.5 (1:100 w/w), then trypsin, chymotrypsin (1:100 w/w) and elastase (1:500 w/w) in 50 mM ammonium bicarbonate pH 7.6; details: 37 °C, up to 60 min
[10] = tested on: pepsin from porcine gastric mucosa, then trypsin and chymotrypsin from a bovine pancreas and elastase; assay: synthetic peptide: pepsin in 0.15 M NaCl pH 2.5 (1:100 w/w, 60 min), then trypsin, chymotrypsin (1:100 w/w) and elastase (1:500 w/w) in 50 mM ammonium bicarbonate pH 7.6; details: 37 °C, up to 270 min

OC[C@@H](O)[C@@H](O)[C@H](O)[C@H](O)CO [D-[1-^14C]-Mannitol]
Apparent permeability coefficient (Papp) of the Caco-2 monolayer [1]: 9.45 ± 2 × 10^−7 cm s^−1 | Papp for the BBB (PBEC monolayer) [2]: 1.09 ± 0.14 × 10^−6 cm s^−1

EPVLGPVRGPFPIIV [EPVLGPVRGPFPIIV]
Peptide identified in the basolateral chamber of Caco-2 monolayers (transported) [3]: not transported across the Caco-2 monolayers | Peptide identified in the basal compartment (brain side) of the PBEC BBB model (transported) [4]: identified in the basal compartment of the BBB model | Crossing of in vitro intestinal barrier models in other studies [5]: shown to cross over in vitro intestinal barrier models

IGSENSEKTTMP [truncated derivative of the αS1-casein peptide …]
Peptide identified in the basal compartment (brain side) of the PBEC BBB model (transported) [4]: identified in all experiments | Inhibition of the activity of angiotensin-converting enzyme (ACE) [6]: can inhibit the activity of angiotensin-converting enzyme

PIGSENSEKTTMPLW
fragment found [7]: PIGSENSEKTTMP (Mox), 2.5 h; also recorded: PIGSENSEKTT, 2.5 h | fragment found [8]: PIGSENSEKTTMP (Mox), 2.5 h; also recorded: PIGSENSEKTT, 2.5 h | not cleaved [9]: peptide ion still observed after pepsin and pancreatic enzyme digestion | not cleaved [10]: ion corresponding to the peptide observed even after 270 min of digestion
